This note sets out measurements from PubChem BioAssay (NCI).

Structures are written as SMILES.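 Each compound was tested at five concentrations against cells in 96-well plates for 48 hours. GI50 is the concentration that inhibits growth by half. TGI marks complete inhibition of growth.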 Some results are limits rather than exact numbers.

Among the test systems are ACHN renal; CAKI-1 renal; COLO 205 colon; HOP-92 NSCLC; K-562 leukemia; KM12 colon; NCI-H460 lung; NCI-H522 lung; SNB-75 CNS; UACC-257 melanoma.
Common to all, as to assay: NCI tumour cell line growth inhibition, 48 h

Regarding `CC[C@@H](C(=O)O)C1CC[C@H](C)C([C@@H](C)[C@H](O)[C@H](C)C(=O)[C@H](CC)C2O[C@]3(C=C[C@@H](O)[C@]4(CC[C@@](C)(C5CC[C@](O)(CC)[C@H](C)O5)O4)O3)[C@H](C)C[C@@H]2C)O1` (some centres undefined), the GI50 was 0.504 µM in the experiment with ACHN renal; 0.19 µM in the experiment with CAKI-1 renal; 0.224 µM in the experiment on COLO 205 colon; 0.317 µM in the experiment with HOP-92 NSCLC; 0.306 µM in the experiment with K-562 leukemia; 0.893 µM in the experiment with KM12 colon. The GI50 in the experiment on NCI-H460 lung was 0.383 µM; in the experiment with NCI-H522 lung it was 0.0785 µM; with SNB-75 CNS, 0.774 µM; in the experiment with UACC-257 melanoma, 0.293 µM. Moreover, the TGI with ACHN renal amounted to 27.5 µM; in the experiment on CAKI-1 renal, 18.2 µM; in the experiment on COLO 205 colon, 5.2 µM; with HOP-92 NSCLC, 4.93 µM; in the experiment with K-562 leukemia it was 15.6 µM; in the experiment on KM12 colon, 11.9 µM. In addition, the TGI was 10.5 µM with NCI-H460 lung, 1.78 µM in the experiment on NCI-H522 lung, 4.18 µM in the experiment with SNB-75 CNS and 5.88 µM with UACC-257 melanoma.
For `NCCn1c(=O)[nH]c(=O)[nH]c1=S`, the GI50 is above 100 µM in the experiment on ACHN renal; above 100 µM in the experiment with CAKI-1 renal; above 100 µM with COLO 205 colon; above 100 µM in the experiment with HOP-92 NSCLC; 54.1 µM in the experiment on K-562 leukemia; above 100 µM with KM12 colon. Also, the GI50 in the experiment with NCI-H460 lung is 39.2 µM; with NCI-H522 lung, above 100 µM; with SNB-75 CNS, above 100 µM; in the experiment with UACC-257 melanoma it was above 100 µM. Further, the TGI in the experiment with ACHN renal, in the experiment with CAKI-1 renal, in the experiment on COLO 205 colon, with HOP-92 NSCLC, with K-562 leukemia and in the experiment with KM12 colon was above 100 µM throughout. In addition, the TGI in the experiment with NCI-H460 lung, in the experiment on NCI-H522 lung, in the experiment with SNB-75 CNS and with UACC-257 melanoma was above 100 µM each time.
With `Cc1cc(N(CCCl)CCCl)ccc1C=Nc1ccc(-c2csc(Cc3ccccc3)n2)cc1`, the GI50 is 5.35 µM in the experiment on ACHN renal; 2.18 µM with CAKI-1 renal; 13.1 µM in the experiment on COLO 205 colon; 1.53 µM in the experiment with HOP-92 NSCLC; 9.88 µM with K-562 leukemia; 15.8 µM in the experiment with KM12 colon. The GI50 with NCI-H460 lung was 0.475 µM; in the experiment with NCI-H522 lung, 11.7 µM; in the experiment with SNB-75 CNS, 3.03 µM; in the experiment on UACC-257 melanoma it was 3.36 µM. Further, the TGI in the experiment with ACHN renal is above 91.3 µM; in the experiment on CAKI-1 renal, 30.5 µM; in the experiment on COLO 205 colon, 34.1 µM; with HOP-92 NSCLC, 12.3 µM; with K-562 leukemia, above 100 µM; in the experiment with KM12 colon, 55.6 µM. Further, the TGI in the experiment on NCI-H460 lung was determined as 23.6 µM; with NCI-H522 lung, 27 µM; with SNB-75 CNS it was 33.5 µM; in the experiment on UACC-257 melanoma it was 29.3 µM.
Regarding `COc1cc(C(=O)C/C(CCCC(=O)Nc2ccccc2[N+](=O)[O-])=N/NC(=O)c2cc3ccccc3cc2O)ccc1O`, the TGI is 98.3 µM in the experiment with ACHN renal; above 100 µM in the experiment with CAKI-1 renal; 63.2 µM in the experiment with COLO 205 colon; above 100 µM in the experiment on HOP-92 NSCLC; above 100 µM with K-562 leukemia; 82.5 µM with KM12 colon. Besides, the TGI with NCI-H460 lung was above 100 µM; in the experiment with NCI-H522 lung, above 100 µM; with SNB-75 CNS, above 100 µM; with UACC-257 melanoma, 82 µM.
For the molecule `CN(C)CCCNC(CC#N)CCC#N` (centres undefined), the TGI in the experiment on ACHN renal, with CAKI-1 renal, in the experiment with COLO 205 colon, with HOP-92 NSCLC, with K-562 leukemia and in the experiment with KM12 colon was above 10 µM each time. The TGI in the experiment with NCI-H460 lung, with NCI-H522 lung, with SNB-75 CNS and in the experiment with UACC-257 melanoma was above 10 µM throughout.
For the molecule `CC(C)[C@H]1CO[C@]2(C)[C@@H]3CN(Cc4ccccc4)C[C@@H]3C(=O)N12`, the TGI in the experiment with ACHN renal, in the experiment with CAKI-1 renal, in the experiment on COLO 205 colon, in the experiment with HOP-92 NSCLC, with K-562 leukemia and with KM12 colon was above 100 µM in each case. The TGI in the experiment on NCI-H460 lung, in the experiment on NCI-H522 lung, with SNB-75 CNS and in the experiment on UACC-257 melanoma was above 100 µM in each case.
With `CN(C)C(=O)OC(Cn1cncn1)c1ccc(Cl)cc1Cl` (centres undefined), the TGI in the experiment with ACHN renal, in the experiment with CAKI-1 renal, with COLO 205 colon, in the experiment with HOP-92 NSCLC, in the experiment on K-562 leukemia and with KM12 colon was above 100 µM throughout. Further, the TGI with NCI-H460 lung, in the experiment with NCI-H522 lung, in the experiment on SNB-75 CNS and in the experiment on UACC-257 melanoma was above 100 µM each time.
In the case of `CN(C)CCNc1c2c(c(NCCN(C)C)c3[nH]ccc13)C(=O)c1ccccc1C2=O`, the GI50 was 0.476 µM with ACHN renal; 2.56 µM in the experiment on CAKI-1 renal; 4.32 µM with COLO 205 colon; 6.08 µM with HOP-92 NSCLC; 0.654 µM in the experiment with K-562 leukemia; 0.347 µM in the experiment on KM12 colon. Also, the GI50 in the experiment with NCI-H460 lung was 0.462 µM; in the experiment on NCI-H522 lung, 3.3 µM; in the experiment with SNB-75 CNS, 2.75 µM; in the experiment on UACC-257 melanoma, 4.71 µM. Besides, the TGI with ACHN renal was 5.56 µM; with CAKI-1 renal, 6.72 µM; in the experiment with COLO 205 colon, above 100 µM; in the experiment on HOP-92 NSCLC, 28.5 µM; in the experiment on KM12 colon it was 2.26 µM; in the experiment with NCI-H460 lung, 2.87 µM. Besides, the TGI with NCI-H522 lung is above 100 µM; in the experiment with SNB-75 CNS, 30.6 µM; in the experiment with UACC-257 melanoma, 19 µM.
In the case of `CCOC(=O)COc1ccccc1/C=C1\CCC(CN(C)C)C1=O` (centres undefined), the TGI came to 26.9 µM in the experiment on ACHN renal; 10.9 µM in the experiment with CAKI-1 renal; 11.1 µM in the experiment on COLO 205 colon; 25.8 µM with HOP-92 NSCLC; 6.51 µM with K-562 leukemia; 13.3 µM with KM12 colon. Further, the TGI in the experiment with NCI-H460 lung was determined as 33.7 µM; with NCI-H522 lung it was 6.01 µM; in the experiment with SNB-75 CNS, 29.5 µM; in the experiment on UACC-257 melanoma, 16.3 µM.
Regarding `Cc1c(C(=O)C/C(=N\O)C(=O)Nc2cc(Cl)c(Cl)cc2Cl)[n+](=O)c2ccccc2n1[O-]`, the TGI was 67.5 µM in the experiment with ACHN renal; above 100 µM with CAKI-1 renal; 12.6 µM in the experiment on COLO 205 colon; 46.2 µM with HOP-92 NSCLC; above 100 µM with K-562 leukemia; 26.2 µM in the experiment on KM12 colon. The TGI in the experiment on NCI-H460 lung is 35.2 µM; in the experiment with NCI-H522 lung it was 16.2 µM; with SNB-75 CNS, above 100 µM; in the experiment on UACC-257 melanoma, 20.2 µM.
As for `CC1OC(O[C@@H]2OC=C(C=O)[C@@]3(O)CC[C@H](C)[C@@H]23)C(O)C(O)C1O` (some centres undefined), the TGI in the experiment with ACHN renal, with CAKI-1 renal, in the experiment on COLO 205 colon, with HOP-92 NSCLC, with K-562 leukemia and in the experiment on KM12 colon was above 100 µM in each case. In addition, the TGI with NCI-H460 lung, with NCI-H522 lung, with SNB-75 CNS and in the experiment with UACC-257 melanoma was above 100 µM each time.
In the case of `CC1=Nc2ccccc2S/C1=C(/C)NNC(=O)C(N)=O`, the TGI in the experiment on ACHN renal, in the experiment with CAKI-1 renal, in the experiment on COLO 205 colon, with HOP-92 NSCLC, in the experiment on K-562 leukemia and in the experiment with KM12 colon was above 100 µM throughout. For the same molecule, the TGI with NCI-H460 lung, in the experiment with NCI-H522 lung, in the experiment with SNB-75 CNS and with UACC-257 melanoma was above 100 µM throughout.
`CCOC(=O)c1cc(NS(=O)(=O)c2ccccc2)cc(C(=O)OCC)c1`: the GI50 in the experiment on ACHN renal, in the experiment with CAKI-1 renal, in the experiment with COLO 205 colon, in the experiment on HOP-92 NSCLC, with K-562 leukemia and in the experiment with KM12 colon was above 100 µM each time. Moreover, the GI50 with NCI-H460 lung, in the experiment with NCI-H522 lung, in the experiment on SNB-75 CNS and in the experiment with UACC-257 melanoma was above 100 µM throughout. The TGI with ACHN renal, with CAKI-1 renal, in the experiment on COLO 205 colon, with HOP-92 NSCLC, in the experiment with K-562 leukemia and in the experiment on KM12 colon was above 100 µM in each case. The TGI in the experiment with NCI-H460 lung, with NCI-H522 lung, in the experiment on SNB-75 CNS and with UACC-257 melanoma was above 100 µM in each case.
In the case of `Nn1c(NNC(=O)C(=O)Nc2cc(Cl)c(Cl)cc2Cl)n[nH]c1=S`, the TGI in the experiment with ACHN renal, in the experiment with CAKI-1 renal, with COLO 205 colon, in the experiment with HOP-92 NSCLC, in the experiment on K-562 leukemia and with KM12 colon was above 100 µM each time. The TGI in the experiment on NCI-H460 lung, with NCI-H522 lung, with SNB-75 CNS and in the experiment with UACC-257 melanoma was above 100 µM each time.
`Cn1cccc1-c1cc(-c2cccs2)nc(N)c1C#N`: the GI50 in the experiment on ACHN renal, in the experiment on CAKI-1 renal, with COLO 205 colon, in the experiment with HOP-92 NSCLC, in the experiment on K-562 leukemia and in the experiment with KM12 colon was above 100 µM in each case. The GI50 was above 100 µM in the experiment with NCI-H460 lung, above 100 µM in the experiment on NCI-H522 lung, 46 µM with SNB-75 CNS and above 100 µM in the experiment on UACC-257 melanoma. For the same molecule, the TGI in the experiment with ACHN renal, in the experiment with CAKI-1 renal, with COLO 205 colon, in the experiment with HOP-92 NSCLC, with K-562 leukemia and in the experiment on KM12 colon was above 100 µM in each case. Moreover, the TGI in the experiment with NCI-H460 lung, with NCI-H522 lung, in the experiment with SNB-75 CNS and with UACC-257 melanoma was above 100 µM in each case.
